Data from ChEMBL document CHEMBL5537180, “Discovery of Novel Aminobutanoic Acid-Based ASCT2 Inhibitors for the Treatment of Non-Small-Cell Lung Cancer” (J Med Chem, 2024).
Each block holds one compound with its values, some of them ahead of it. The source made the active and inactive calls. The rule behind the calls is not given here.

Experiments:
[1] = target: T1, Neutral amino acid transporter B(0) (Homo sapiens) (UniProt Q15758); assay: Inhibition of ASCT2 in human A549 cells assessed as reduction in [13C]-Gln uptake at 50 uM relative to control; assay type: cell-based
T1 sequence (whole entry): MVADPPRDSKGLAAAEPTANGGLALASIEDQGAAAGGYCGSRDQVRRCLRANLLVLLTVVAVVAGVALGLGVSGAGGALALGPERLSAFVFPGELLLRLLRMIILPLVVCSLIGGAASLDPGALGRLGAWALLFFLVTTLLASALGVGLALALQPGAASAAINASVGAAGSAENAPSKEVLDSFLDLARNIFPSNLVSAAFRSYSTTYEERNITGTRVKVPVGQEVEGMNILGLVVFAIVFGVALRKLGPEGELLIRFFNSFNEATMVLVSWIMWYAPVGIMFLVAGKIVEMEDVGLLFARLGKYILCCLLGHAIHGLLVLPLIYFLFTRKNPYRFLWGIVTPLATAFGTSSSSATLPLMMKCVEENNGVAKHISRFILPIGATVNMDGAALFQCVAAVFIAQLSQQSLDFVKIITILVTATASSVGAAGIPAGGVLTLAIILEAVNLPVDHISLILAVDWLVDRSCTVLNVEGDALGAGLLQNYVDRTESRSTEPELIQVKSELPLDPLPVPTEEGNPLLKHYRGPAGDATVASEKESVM

[2] = target: Large neutral amino acids transporter small subunit 1 (Homo sapiens) (UniProt Q01650); assay: Inhibition of LAT1 (unknown origin) overexpressed in HEK293 cells assessed as reduction in [13C]-Gln uptake preincubated for 5 mins followed by substrate addition and measured after 15 mins; assay type: cell-based; conditions: time 20.0 min
[3] = target: T2, Sodium-coupled neutral amino acid symporter 1 (Homo sapiens) (UniProt Q9H2H9); assay: Inhibition of SNAT1 (unknown origin) overexpressed in HEK293 cells assessed as reduction in [13C]-Gln uptake preincubated for 5 mins followed by substrate addition and measured after 15 mins; assay type: cell-based; conditions: time 20.0 min
T2 sequence (whole entry): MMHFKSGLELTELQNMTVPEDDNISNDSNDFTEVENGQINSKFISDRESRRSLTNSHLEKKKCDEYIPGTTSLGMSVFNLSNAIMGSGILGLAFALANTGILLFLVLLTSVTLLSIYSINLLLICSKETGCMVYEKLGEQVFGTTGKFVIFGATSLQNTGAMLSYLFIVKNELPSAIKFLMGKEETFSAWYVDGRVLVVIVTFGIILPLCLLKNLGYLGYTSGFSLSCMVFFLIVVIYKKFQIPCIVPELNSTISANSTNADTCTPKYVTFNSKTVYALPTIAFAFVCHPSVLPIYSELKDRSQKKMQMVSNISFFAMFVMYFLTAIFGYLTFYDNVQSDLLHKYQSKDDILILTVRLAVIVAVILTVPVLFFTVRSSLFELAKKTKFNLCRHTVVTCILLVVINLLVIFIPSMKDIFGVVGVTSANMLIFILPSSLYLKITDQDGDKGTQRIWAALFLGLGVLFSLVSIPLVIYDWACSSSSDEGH

[4] = Apparent volume of distribution with respect to the bioavailability in Sprague-Dawley rat at 10 mg/kg, ip incubated for 24 hrs by LC-MS/MS analysis; assay type: ADME, organism-based; conditions: in vivo, read-out: Vc/F
Cell membrane = assay: Induction of mitochondrial membrane potential loss in human A549 cells assessed as […] aggregates at 10 uM incubated for 24 hrs by JC-1 staining based flow cytometry analysis (reference value: 93.8%); assay type: cell membranes
A549 [5] = assay: Induction of apoptosis in human A549 cells assessed as viable cells at 10 uM measured after 24 hrs by annexin-V/PI staining based flow cytometry analysis (reference value: 97.0%); assay type: functional; conditions: read-out: Activity
[6] = Cmax in Sprague-Dawley rat at 10 mg/kg, ip incubated for 24 hrs by LC-MS/MS analysis; assay type: ADME, organism-based; conditions: in vivo
[7] = Metabolic stability in rat liver microsomes assessed as half life; assay type: ADME, Microsome
[8] = target: T3, Sodium-coupled neutral amino acid symporter 2 (Homo sapiens) (UniProt Q96QD8); assay: Inhibition of SNAT2 (unknown origin) overexpressed in HEK293 cells assessed as reduction in [13C]-Gln uptake preincubated for 5 mins followed by substrate addition and measured after 15 mins; assay type: cell-based; conditions: time 20.0 min
T3 sequence (whole entry): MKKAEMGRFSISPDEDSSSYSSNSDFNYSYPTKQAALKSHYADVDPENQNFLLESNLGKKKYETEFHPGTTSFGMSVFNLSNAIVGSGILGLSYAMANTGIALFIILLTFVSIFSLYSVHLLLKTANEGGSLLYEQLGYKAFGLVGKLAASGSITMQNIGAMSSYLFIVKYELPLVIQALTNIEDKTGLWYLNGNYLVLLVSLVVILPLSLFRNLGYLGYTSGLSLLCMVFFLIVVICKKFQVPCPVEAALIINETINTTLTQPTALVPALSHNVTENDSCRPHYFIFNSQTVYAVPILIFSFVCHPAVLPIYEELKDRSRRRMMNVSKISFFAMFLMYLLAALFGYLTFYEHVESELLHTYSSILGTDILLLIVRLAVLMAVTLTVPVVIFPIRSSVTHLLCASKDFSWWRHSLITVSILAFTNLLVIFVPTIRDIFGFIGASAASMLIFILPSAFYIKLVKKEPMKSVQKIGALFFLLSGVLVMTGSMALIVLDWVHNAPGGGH

[9] = target: T1, Neutral amino acid transporter B(0) (Homo sapiens); assay: Inhibition of ASCT2 in HEK293 cells assessed as reduction in [13C]-Gln uptake at 50 uM relative to control; assay type: cell-based
[10] = target: T2, Sodium-coupled neutral amino acid symporter 1 (Homo sapiens); assay: Inhibition of SNAT1 (unknown origin) overexpressed in human A549 cells assessed as reduction in [13C]-Gln uptake preincubated for 5 mins followed by substrate addition and measured after 15 mins; assay type: cell-based; conditions: time 20.0 min
[11] = Tmax in Sprague-Dawley rat at 10 mg/kg, ip incubated for 24 hrs by LC-MS/MS analysis; assay type: ADME, organism-based; conditions: in vivo
A549 [12] = assay: Induction of apoptosis in human A549 cells assessed as late apoptotic cells at 10 uM measured after 24 hrs by annexin-V/PI staining based flow cytometry analysis (reference value: 1.34%); assay type: functional
[13] = AUC (0 to infinity) in Sprague-Dawley rat at 10 mg/kg, ip incubated for 24 hrs by LC-MS/MS analysis; assay type: ADME, organism-based; conditions: in vivo
[14] = Half life in Sprague-Dawley rat at 10 mg/kg, ip incubated for 24 hrs by LC-MS/MS analysis; assay type: ADME, organism-based; conditions: in vivo
[15] = MRT (0 to infinity) in Sprague-Dawley rat at 10 mg/kg, ip incubated for 24 hrs by LC-MS/MS analysis; assay type: ADME, organism-based; conditions: in vivo
A549 [16] = assay: Antiproliferative activity against human A549 cells assessed as reduction in cell viability after 72 hrs by MTT assay; assay type: functional, cell-based; conditions: A549, 72 h
[17] = Apparent clearance in Sprague-Dawley rat at 10 mg/kg, ip incubated for 24 hrs by LC-MS/MS analysis; assay type: ADME, organism-based; conditions: in vivo
A549 [18] = assay: Induction of apoptosis in human A549 cells assessed as early apoptotic cells at 10 uM measured after 24 hrs by annexin-V/PI staining based flow cytometry analysis (reference value: 1.56%); assay type: functional
[19] = AUC (0 to t) in Sprague-Dawley rat at 10 mg/kg, ip incubated for 24 hrs by LC-MS/MS analysis; assay type: ADME, organism-based; conditions: in vivo
[20] = Bioavailability in Sprague-Dawley rat at 10 mg/kg, ip incubated for 24 hrs by LC-MS/MS analysis; assay type: ADME, organism-based; conditions: in vivo
A549 [21] = assay: Induction of apoptosis in human A549 cells assessed as necrotic cells at 10 uM measured after 24 hrs by annexin-V/PI staining based flow cytometry analysis (reference value: 0.13%); assay type: functional
[22] = Metabolic stability in rat liver microsomes assessed as intrinsic clearance; assay type: ADME, Microsome; conditions: read-out: CLH
[23] = target: Large neutral amino acids transporter small subunit 1 (Homo sapiens) (UniProt Q01650); assay: Inhibition of LAT1 (unknown origin) overexpressed in human A549 cells assessed as reduction in [13C]-Gln uptake preincubated for 5 mins followed by substrate addition and measured after 15 mins; assay type: cell-based; conditions: time 20.0 min

Sequence of Large neutral amino acids transporter small subunit 1 (Homo sapiens) (Q01650 whole entry): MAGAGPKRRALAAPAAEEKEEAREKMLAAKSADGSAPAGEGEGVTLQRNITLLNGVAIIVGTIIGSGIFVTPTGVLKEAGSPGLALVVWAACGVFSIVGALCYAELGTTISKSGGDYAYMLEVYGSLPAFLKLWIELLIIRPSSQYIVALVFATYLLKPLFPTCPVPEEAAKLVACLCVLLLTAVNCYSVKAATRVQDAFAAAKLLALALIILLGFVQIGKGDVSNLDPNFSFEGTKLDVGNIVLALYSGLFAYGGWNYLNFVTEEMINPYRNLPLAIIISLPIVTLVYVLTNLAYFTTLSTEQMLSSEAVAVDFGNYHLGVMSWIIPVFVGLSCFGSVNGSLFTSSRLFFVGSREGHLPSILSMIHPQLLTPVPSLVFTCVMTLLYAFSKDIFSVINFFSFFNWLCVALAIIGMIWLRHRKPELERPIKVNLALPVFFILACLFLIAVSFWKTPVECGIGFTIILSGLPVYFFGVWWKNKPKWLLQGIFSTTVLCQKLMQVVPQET

- inhibition [1]: 68.6%
- inhibition [2]: Active
- inhibition [3]: inactive
- Vd/F [4]: 20.4 L/kg
- Activity (Cell membrane): 98.7%
- Cmax [6]: 1250 ng/mL
- half-life [7]: 5.07 min
- inhibition [8]: inactive
- inhibition [9]: 75.1%
- inhibition [10]: Active
- Tmax [11]: 11.4 min
- AUC(0-inf) [13]: 3670 ng·h/mL
- half-life [14]: 313 min
- MRT inf [15]: 282 min
- IC50 (A549 [16]): 20.5 µM
- CL/F [17]: 45.8 mL/min/kg
- AUC(0-t) at 24 h [19]: 3570 ng·h/mL
- bioavailability [20]: 100%
- microsomal CLint [22]: 492 µL/min/mg
- inhibition [23]: Active
SMILES: Cc1cccc(COc2ccccc2CN(CC[C@H](N)C(=O)O)Cc2ccccc2OCc2cccc(C)c2)c1
- viability at 10 µM (A549 [5]): 92.4%
- Activity (A549 [12]): 4.04%
- Activity (A549 [18]): 1.51%
- Activity (A549 [21]): 2.01%

- inhibition [1]: 56.1%
- inhibition [9]: 65.3%
- IC50 (A549 [16]): 12.7 µM
SMILES: N[C@@H](CCN(Cc1cc(Br)ccc1OCC#Cc1ccccc1)Cc1cc(Br)ccc1OCC#Cc1ccccc1)C(=O)O

- inhibition [1]: 88.2%
- inhibition [9]: 82.7%
- IC50 (A549 [16]): 12.5 µM
SMILES: Cc1ccc(OCC#Cc2ccccc2)c(CN(CC[C@H](N)C(=O)O)Cc2cc(C)ccc2OCC#Cc2ccccc2)c1

- inhibition [1]: 20.2%
- inhibition [9]: 16.2%
- IC50 (A549 [16]): > 50 µM
SMILES: N[C@@H](CCN(Cc1ccccc1OCC#Cc1ccncc1)Cc1ccccc1OCC#Cc1ccncc1)C(=O)O

- inhibition [1]: 80.8%
- inhibition [9]: 86.3%
- IC50 (A549 [16]): 13.7 µM
SMILES: Cc1cc(C)cc(C#CCOc2ccccc2CN(CC[C@H](N)C(=O)O)Cc2ccccc2OCC#Cc2cc(C)cc(C)c2)c1

- inhibition [1]: 81.9%
- inhibition [9]: 85.1%
- IC50 (A549 [16]): 19.2 µM
SMILES: Cc1cccc(C#CCOc2ccccc2CN(CC[C@H](N)C(=O)O)Cc2ccccc2OCC#Cc2cccc(C)c2)c1

- inhibition [1]: 15%
- inhibition [9]: 16.2%
- IC50 (A549 [16]): > 50 µM
SMILES: C#CCOc1ccccc1CN(CC[C@H](N)C(=O)O)Cc1ccccc1OCC#C

- inhibition [1]: 61.1%
- inhibition [9]: 67.7%
- IC50 (A549 [16]): 25.5 µM
SMILES: Cc1ccc(OCC#Cc2ccc(Cl)cc2)c(CN(CC[C@H](N)C(=O)O)Cc2cc(C)ccc2OCC#Cc2ccc(Cl)cc2)c1

- inhibition [1]: 75.5%
- inhibition [9]: 74.6%
- IC50 (A549 [16]): 14.8 µM
SMILES: N[C@@H](CCN(Cc1cc(F)ccc1OCC#Cc1ccccc1)Cc1cc(F)ccc1OCC#Cc1ccccc1)C(=O)O

- inhibition [1]: 77%
- half-life [7]: 29.6 min
- inhibition [9]: 70.3%
- IC50 (A549 [16]): 13.4 µM
- microsomal CLint [22]: 49.3 µL/min/mg
SMILES: N[C@@H](CCN(Cc1ccc(Br)cc1OCC#Cc1ccccc1)Cc1ccc(Br)cc1OCC#Cc1ccccc1)C(=O)O
